The target of test [1] is T1, human GIPR (Homo sapiens, UniProt P48546).
T1 construct: expressed in transfected cells; host or cells: CHO-K1 Cre-luc reporter cells (hGIPR/CHO-K1, also called hGIPR/CRE-LUC/CHO-K1)
T1 sequence (P48546 22-466): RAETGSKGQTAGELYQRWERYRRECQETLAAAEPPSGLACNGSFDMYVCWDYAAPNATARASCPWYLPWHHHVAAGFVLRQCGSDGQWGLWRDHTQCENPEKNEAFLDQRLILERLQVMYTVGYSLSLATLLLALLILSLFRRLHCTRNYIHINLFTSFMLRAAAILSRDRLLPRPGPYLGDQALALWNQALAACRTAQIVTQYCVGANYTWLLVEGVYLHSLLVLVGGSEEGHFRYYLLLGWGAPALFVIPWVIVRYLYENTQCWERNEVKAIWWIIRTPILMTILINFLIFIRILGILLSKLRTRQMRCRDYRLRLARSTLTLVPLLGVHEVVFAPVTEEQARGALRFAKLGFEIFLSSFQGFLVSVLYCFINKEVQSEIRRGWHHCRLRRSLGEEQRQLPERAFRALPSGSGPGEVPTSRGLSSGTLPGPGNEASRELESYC
Description: Reporter assay of human GIPR gene (agonist activity, intracellular cAMP as index). Type of test: cell-based. Particulars: Cre-luc reporter, hGIPR/CHO-K1 cells, 4 hours. From the text:
Evaluation of Agonist Activity Against Human NPY2R, Human GIPR, and Human GLP-1R Using Change in Intracellular cAMP Concentration as Index
The human GIPR gene having a sequence identical to the sequence of GenBank Accession No. U39231 was cloned into pMSRα-neo vector to prepare hGIPR/pMSRα-neo. This vector was introduced to the Cre-luc reporter cells obtained in (1) to obtain transformants. Next, a cell line induced to express luciferase, i.e., hGIPR/CHO-K1 cells, were selected from the obtained transformants by the addition of GIP.
The hGIPR/CRE-LUC/CHO-K1 cells or the hGLP-1R/Crel cells were inoculated at a cell density of 25 μL/well (5,000 cells/well) to a 384-well white plate (Corning, 3570), and cultured overnight in Ham F12 medium containing 10% fetal bovine serum, 100 U/mL penicillin and 100 μg/mL streptomycin in a CO2 incubator of 37° C. On the next day, a medium containing a test compound was added at a concentration of 5 μL/well to the cells, and the resultant cells were incubated for 4 hours in a CO2 incubator of 37° C. to give the final concentration of 1 μM. SteadyGlo (Promega) was added thereto at a concentration of 30 μL/well, and the mixture was shaken with light shielded. After 30 minutes, the luciferase activity was measured using a plate reader Envision (PerkinElmer). For the GIPR agonist activity, the luciferase activity in the presence of 10 μM GIP was defined as 100%, and the luciferase activity from the addition of DMSO instead of the test compound was defined as 0%. The GIPR agonist activity was calculated with a rise in intracellular cAMP concentration as an index.
(A reporter such as luciferase makes a cellular process visible.)

The subject of test [2] is male C57BL/6J mouse. In words: Evaluation of feeding suppressive action in mice. The format is in vivo. Particulars: 30 nmol/kg s.c. once a day for 3 days; 3-days cumulative food consumption vs solvent control. Here is the method: The feeding suppressive activity of a test compound was examined by the method described below.
The test compound was dissolved at a concentration of 30 or 100 nmol/2 mL in a solvent (10% DMSO-containing physiological saline). The test compound solution was subcutaneously administered at a dose of 2 mL/kg to the back of each male C57BL/6J mouse at 8-9 weeks of age (20-26° C., allowed to take food and water ad libitum; raised in the 12-hour bright-12-hour dark cycle). The administration was performed once a day for 3 days. After the administration, the mouse was individually raised in a rearing cage, and given previously weighed food; food consumption for 3 days after the start of administration was measured. The food consumption was calculated by subtracting the amount of remaining food from the weight of the food given on the day of the start of administration. When the food consumption of a control group receiving administration of the solvent alone was regarded as a suppression rate of 0%, the feeding suppressive activity of each test compound was evaluated on the basis of 3-days cumulative food consumption after the start of administration. The food intake suppression rate (%) of the test compound was defined as (Food consumption of the control group−Food consumption of the test compound-administered group)/Food consumption of the control group×100.

The EC50 is the concentration at which the effect is half-maximal. Low readings indicate a more potent agent, high ones a less potent agent.

Square brackets hold non-standard residues; d marks the D form. Side chains are listed from the residue outwards. Peptide text beside a SMILES is read from it. * marks the point of attachment. C18 diacid = O=C(O)CCCCCCCCCCCCCCCCC(=O)*; NMeY = CN[C@@H](Cc1ccc(O)cc1)C(=O)O; Palmitoyl = CCCCCCCCCCCCCCCC(=O)*; αMeF = C[C@](N)(Cc1ccccc1)C(=O)O; Iva = CC[C@](C)(N)C(=O)O; Aib = CC(C)(N)C(=O)O

Compound `CC[C@H](C)[C@H](NC(=O)[C@H](C)NC(=O)[C@H](CCCCNC(=O)CNC(=O)CNC(=O)CNC(=O)CNC(=O)CCCCCCCCCCCCCCCCC(=O)O)NC(=O)[C@H](CC(=O)O)NC(=O)[C@H](CO)NC(=O)[C@@H](NC(=O)[C@](C)(Cc1ccccc1)NC(=O)[C@@H](NC(=O)CNC(=O)[C@H](CCC(=O)O)NC(=O)C(C)(C)NC(=O)[C@H](Cc1ccc(O)cc1)NC)[C@@H](C)O)[C@@H](C)O)C(=O)NC(C)(C)C(=O)N[C@@H](CC(C)C)C(=O)N[C@@H](CC(=O)O)C(=O)N[C@@H](CCCCN)C(=O)N[C@@H](CCC(N)=O)C(=O)N[C@@H](CCCNC(=N)N)C(=O)N[C@@H](CCC(N)=O)C(=O)N[C@@](C)(CC)C(=O)N[C@@H](CCC(=O)O)C(=O)N[C@@H](Cc1ccccc1)C(=O)N[C@H](C(=O)N[C@@H](CCCNC(=N)N)C(=O)N[C@@H](Cc1c[nH]cn1)C(=O)N[C@@H](CC(C)C)C(=O)N[C@@H](CC(C)C)C(=O)N[C@@H](CC(N)=O)C(=O)N[C@@H](CCCCN)C(=O)NC(C)(C)C(=O)N[C@H](C(=O)N[C@@H](CCCNC(=N)N)C(=O)N[C@@H](CCC(N)=O)C(=O)N[C@@H](CCCNC(=N)N)C(=O)N[C@@H](Cc1ccc(O)cc1)C(N)=O)[C@@H](C)O)C(C)C` [Example 14] (H-[NMeY][Aib]EGT[αMeF]TSDK([Gly-Gly-Gly-Gly-C18 diacid])AI[Aib]LDKQRQ[Iva]EFVRHLLNK[Aib]TRQRY-NH2) came in with an EC50 in test [1] of 0.17 nM. `CCCCCCCCCCCCCCCC(=O)NCC(=O)NCC(=O)NCC(=O)NCC(=O)NCCCC[C@H](NC(=O)[C@H](CC(=O)O)NC(=O)[C@H](CO)NC(=O)[C@@H](NC(=O)[C@](C)(Cc1ccccc1)NC(=O)[C@@H](NC(=O)CNC(=O)[C@H](CCC(=O)O)NC(=O)C(C)(C)NC(=O)[C@@H](N)Cc1ccc(O)cc1)[C@@H](C)O)[C@@H](C)O)C(=O)NC(C)(C)C(=O)N[C@H](C(=O)NC(C)(C)C(=O)N[C@@H](CC(C)C)C(=O)N[C@@H](CC(=O)O)C(=O)N[C@@H](CCCCN)C(=O)N[C@@H](CCC(N)=O)C(=O)N[C@@H](C)C(=O)N[C@@H](CCC(N)=O)C(=O)N[C@@](C)(CC)C(=O)N[C@@H](CCC(=O)O)C(=O)N[C@@H](Cc1ccccc1)C(=O)N[C@H](C(=O)N[C@@H](CCCNC(=N)N)C(=O)N[C@@H](Cc1c[nH]cn1)C(=O)N[C@@H](CC(C)C)C(=O)N[C@@H](CC(C)C)C(=O)N[C@@H](CC(N)=O)C(=O)N[C@@H](CCCCN)C(=O)NC(C)(C)C(=O)N[C@H](C(=O)N[C@@H](CCCNC(=N)N)C(=O)N[C@@H](CCC(N)=O)C(=O)N[C@@H](CCCNC(=N)N)C(=O)N[C@@H](Cc1ccc(O)cc1)C(N)=O)[C@@H](C)O)C(C)C)[C@@H](C)CC` [Example 27] (H-Y[Aib]EGT[αMeF]TSDK([Gly-Gly-Gly-Gly-Palmitoyl])[Aib]I[Aib]LDKQAQ[Iva]EFVRHLLNK[Aib]TRQRY-NH2) showed an EC50 in test [1] of 0.041 nM. Besides, the “Rate of feeding suppression (%)” value in test [2] is reported as −41.6%. For the compound `CC[C@H](C)[C@H](NC(=O)C(C)(C)NC(=O)[C@H](CCCCNC(=O)CNC(=O)CNC(=O)CNC(=O)CNC(=O)CCCCCCCCCCCCCCCCC(=O)O)NC(=O)[C@H](CC(=O)O)NC(=O)[C@H](CO)NC(=O)[C@@H](NC(=O)[C@](C)(Cc1ccccc1)NC(=O)[C@@H](NC(=O)CNC(=O)[C@H](CCC(=O)O)NC(=O)C(C)(C)NC(=O)[C@H](Cc1ccc(O)cc1)NC)[C@@H](C)O)[C@@H](C)O)C(=O)NC(C)(C)C(=O)N[C@@H](CC(C)C)C(=O)N[C@@H](CC(=O)O)C(=O)N[C@@H](CCCCN)C(=O)N[C@@H](CCC(N)=O)C(=O)N[C@@H](C)C(=O)N[C@@H](CCC(N)=O)C(=O)N[C@@](C)(CC)C(=O)N[C@@H](CCC(=O)O)C(=O)N[C@@H](Cc1ccccc1)C(=O)N[C@H](C(=O)N[C@@H](CCCNC(=N)N)C(=O)N[C@@H](Cc1c[nH]cn1)C(=O)N[C@@H](CC(C)C)C(=O)N[C@@H](CC(C)C)C(=O)N[C@@H](CC(N)=O)C(=O)N[C@@H](CCCCN)C(=O)NC(C)(C)C(=O)N[C@H](C(=O)N[C@@H](CCCNC(=N)N)C(=O)N[C@@H](CCC(N)=O)C(=O)N[C@@H](CCCNC(=N)N)C(=O)N[C@@H](Cc1ccc(O)cc1)C(N)=O)[C@@H](C)O)C(C)C` [Example 30] (H-[NMeY][Aib]EGT[αMeF]TSDK([Gly-Gly-Gly-Gly-C18 diacid])[Aib]I[Aib]LDKQAQ[Iva]EFVRHLLNK[Aib]TRQRY-NH2), the concentration for a half-maximal effect (EC50) in test [1] stood at 0.074 nM. Consider `CCCCCCCCCCCCCCCC(=O)NCC(=O)NCC(=O)NCC(=O)NCC(=O)NCCCC[C@H](NC(=O)[C@H](CC(=O)O)NC(=O)[C@H](CO)NC(=O)[C@@H](NC(=O)[C@](C)(Cc1ccccc1)NC(=O)[C@@H](NC(=O)CNC(=O)[C@H](CCC(=O)O)NC(=O)C(C)(C)NC(=O)[C@@H](N)Cc1ccc(O)cc1)[C@@H](C)O)[C@@H](C)O)C(=O)N[C@@H](CO)C(=O)N[C@H](C(=O)NC(C)(C)C(=O)N[C@@H](CC(C)C)C(=O)N[C@@H](CCC(=O)O)C(=O)N[C@@H](CCCCN)C(=O)N[C@@H](CCC(N)=O)C(=O)N[C@@H](CCCNC(=N)N)C(=O)N[C@@H](CCC(N)=O)C(=O)N[C@@](C)(CC)C(=O)N[C@@H](CCC(=O)O)C(=O)N[C@@H](Cc1ccccc1)C(=O)N[C@H](C(=O)N[C@@H](CCCNC(=N)N)C(=O)N[C@@H](Cc1c[nH]cn1)C(=O)N[C@@H](CC(C)C)C(=O)N[C@@H](CC(C)C)C(=O)N[C@@H](CC(N)=O)C(=O)N[C@@H](CCCCN)C(=O)NC(C)(C)C(=O)N[C@H](C(=O)N[C@@H](CCCNC(=N)N)C(=O)N[C@@H](CCC(N)=O)C(=O)N[C@@H](CCCNC(=N)N)C(=O)N[C@@H](Cc1ccc(O)cc1)C(N)=O)[C@@H](C)O)C(C)C)[C@@H](C)CC` [Example 39] (H-Y[Aib]EGT[αMeF]TSDK([Gly-Gly-Gly-Gly-Palmitoyl])SI[Aib]LEKQRQ[Iva]EFVRHLLNK[Aib]TRQRY-NH2), for which the 50% effective concentration (EC50) in test [1] came to 0.041 nM. Further, the “Rate of feeding suppression (%)” value in test [2] was −49.6%.

The record behind these values is patent publication US10501516B2, “Peptide compound” (TAKEDA PHARMACEUTICAL COMPANY LIMITED, priority 2016, dated 2019).
